Test results taken from US20190054117A1, “DIMERIZATION SWITCHES AND USES THEREOF” (priority 2014, published 2019).

target: biotinylated FKBP in the presence of everolimus (RAD001); assay: EC50 direct binding assay (AlphaLISA): FLAG FRB protein and biotinylated FKBP with serially diluted everolimus; settings: 30 nM FLAG-tagged FRB, 30 nM biotinylated FKBP; everolimus serial diluted 1:3 from 600 nM
Description: In a direct binding assay, unlabeled candidate mutant FRB is incubated in solution with tagged wild-type FKBP in the presence of the dimerization molecule, e.g., under conditions suitable for binding of FRB to the dimerization molecule and dimerization of FRB and FKBP. Tagged FKBP can be removed from the reaction by affinity purification; candidate mutant FRB that is able to bind the dimerization molecule and dimerize with the tagged FKBP will also be removed. […] EC50 values for direct binding affinity can then be calculated using methods known in the art.
FRB mutations were also ranked in an alternative assay format. Briefly, FRB proteins incorporating single and double mutations (SEQ ID NO: 54-58) were produced as FLAG tagged constructs in E. coli as described previously. 30 nM (final) of biotinylated FKBP (SEQ ID NO: 59) and each FLAG FRB protein were combined in the presence of everolimus serial diluted 1:3 from a starting final concentration of 600 nM into a 96 well ½ surface flat-bottom plate (PerkinElmer) and incubated for one hour at room temperature. All dilutions were made in 1× AlphaLISA Immunoassay buffer (PerkinElmer). Anti-Flag acceptor beads (PerkinElmer) were added at 10 ug/ml final concentration and incubated for one hour at room temperature. Streptavidin donor beads (PerkinElmer), were then added at a final concentration of 40 ug/ml and the plate was protected from light and incubated for 30 minutes at room temperature. The plate was then read on the PerkinElmer EnVision Multiplate reader equipped with the Alpha Module using excitation of 680 nm and a 570 nm Emission filter.

Sequence of biotinylated FKBP in the presence of everolimus (RAD001) (P62942 2-108 limits assumed): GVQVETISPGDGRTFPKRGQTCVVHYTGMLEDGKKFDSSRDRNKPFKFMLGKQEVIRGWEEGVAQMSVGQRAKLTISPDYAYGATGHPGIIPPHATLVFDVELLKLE

“E2032I: mutant FRB derived switch domain with E2032I; His-tagged (competition) or His-FLAG-tagged (direct assay)” and “E2032L: mutant FRB derived switch domain with E2032L; His-tagged (competition) or His-FLAG-tagged (direct assay)” are within 1.5-fold of each other in EC50: 2.46 nM for the first, 2.15 nM for the second.

First: T2098L: mutant FRB derived switch domain with T2098L; His-tagged (competition) or His-FLAG-tagged (direct assay)
Second: Wild type FRB (1): wild type FRB domain of FRAP/mTOR (residues 2021-2113); His-tagged in competition assay, His-FLAG-tagged in direct assay [reference compound]
The EC50 of the first is 2.7-fold lower: 1.44 nM for the first, 3.9 nM for the second.
